Data as given in patent US20240308992A1 (Biopolar Youtang(Guangdong) Pharmaceutical Co., Ltd., priority 2021, published 2024).

Molecular target: T1, Drak2 (Homo sapiens, UniProt O94768)
T1 sequence (O94768 1-372): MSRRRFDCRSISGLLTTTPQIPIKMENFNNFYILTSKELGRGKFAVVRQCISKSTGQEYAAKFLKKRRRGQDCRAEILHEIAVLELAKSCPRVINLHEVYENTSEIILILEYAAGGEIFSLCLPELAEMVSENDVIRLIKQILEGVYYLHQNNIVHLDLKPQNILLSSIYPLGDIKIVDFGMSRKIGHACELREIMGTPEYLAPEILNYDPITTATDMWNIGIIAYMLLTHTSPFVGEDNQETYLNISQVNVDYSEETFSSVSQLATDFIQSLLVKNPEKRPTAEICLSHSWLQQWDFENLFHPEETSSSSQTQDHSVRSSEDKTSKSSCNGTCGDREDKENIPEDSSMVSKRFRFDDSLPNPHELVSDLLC
Assay: Drak2 activity test, ADP-Glo kinase assay (Promega)
Format: biochemical
Conditions: inhibition of Drak2 kinase activity, 2 h room temperature, activity range classes, read-out: IC50_Drak2

Structure (SMILES)	IC50
O=C(Nc1csc(-c2cncc(-c3ccc4c(c3)OCO4)n2)c1)C1CCC1 [Example A24, N-(5-(6-(benzo[d][1,3]dioxol-5-yl)pyrazin-2-yl)thiophen-3-yl)cyclobutanecarboxamide]	1000 to 10000 nM
COc1cc(C(N)=O)c(-c2cncc(-c3cc(NC(=O)C4CCC4)cs3)n2)cc1OC [Example A25, 2-(6-(4-(cyclobutanecarboxamido)thiophen-2-yl)pyrazin-2-yl)-4,5-dimethoxybenzamide]	> 10000 nM
CCCCC(=O)Nc1csc(-c2cncc(-c3cc(OC)c(OC)cc3C(N)=O)n2)c1 [Example A26, 4,5-dimethoxy-2-(6-(4-pentanamidothiophen-2-yl)pyrazin-2-yl)benzamide]	1000 to 10000 nM
CCCCC(=O)Nc1csc(-c2cncc(-c3ccc(F)c(F)c3)n2)c1 [Example A27, N-(5-(6-(3,4-difluorophenyl)pyrazin-2-yl)thiophen-3-yl)pentanamide]	1000 to 10000 nM
O=C(Nc1csc(-c2cncc(-c3ccc(F)c(F)c3)n2)c1)C1CCC1 [Example A28, N-(5-(6-(3,4-difluorophenyl)pyrazin-2-yl)thiophen-3-yl)cyclobutanecarboxamide]	1000 to 10000 nM
CCCCCC(=O)Nc1csc(-c2cncc(-c3ccc(OC)c(OC)c3)n2)c1 [Example A29, N-(5-(6-(3,4-dimethoxyphenyl)pyrazin-2-yl)thiophen-3-yl)hexanamide]	101 to 1000 nM
CCCCCCC(=O)Nc1csc(-c2cncc(-c3ccc(OC)c(OC)c3)n2)c1 [Example A30, N-(5-(6-(3,4-dimethoxyphenyl)pyrazin-2-yl)thiophen-3-yl)heptanamide]	> 10000 nM
COc1ccc(-c2cncc(-c3cc(NC(=O)CC4CC4)cs3)n2)cc1OC [Example A31, 2-cyclopropyl-N-(5-(6-(3,4-dimethoxyphenyl)pyrazin-2-yl)thiophen-3-yl)acetamide]	11 to 100 nM
COc1ccc(-c2cncc(-c3cc(NC(=O)CC4CCC4)cs3)n2)cc1OC [Example A32, 2-cyclobutyl-N-(5-(6-(3,4-dimethoxyphenyl)pyrazin-2-yl)thiophen-3-yl)acetamide]	11 to 100 nM
COc1ccc(-c2cncc(-c3cc(NC(=O)CC4CCCC4)cs3)n2)cc1OC [Example A33, 2-cyclopentyl-N-(5-(6-(3,4-dimethoxyphenyl)pyrazin-2-yl)thiophen-3-yl)acetamide]	101 to 1000 nM
CCCCC(=O)Nc1csc(-c2cncc(-c3ccc(O)c(F)c3)n2)c1 [Example A34, N-(5-(6-(3-fluoro-4-hydroxyphenyl)pyrazin-2-yl)thiophen-3-yl)pentanamide]	11 to 100 nM
CCCCC(=O)Nc1csc(-c2cncc(-c3ccc(C4(O)COC4)c(OC)c3)n2)c1 [Example A35, N-(5-(6-(4-(3-hydroxyoxetan-3-yl)-3-methoxyphenyl)pyrazin-2-yl)thiophen-3-yl)pentanamide]	11 to 100 nM
CCCCC(=O)Nc1csc(-c2cncc(-c3ccc(-c4cc(O)no4)c(OC)c3)n2)c1 [Example A36, N-(5-(6-(4-(3-hydroxyisoxazol-5-yl)-3-methoxyphenyl)pyrazin-2-yl)thiophen-3-yl)pentanamide]	101 to 1000 nM
CCCCC(=O)Nc1csc(-c2cncc(-c3ccc(C4=NOC(=O)C4)c(OC)c3)n2)c1 [Example A37, N-(5-(6-(3-methoxy-4-(5-oxo-4,5-dihydroisoxazol-3-yl)phenyl)pyrazin-2-yl)thiophen-3-yl)pentanamide]	101 to 1000 nM
CCCCC(=O)Nc1csc(-c2cncc(-c3cc(F)c(O)c(OC)c3)n2)c1 [Example A38, N-(5-(6-(3-fluoro-4-hydroxy-5-methoxyphenyl)pyrazin-2-yl)thiophen-3-yl)pentanamide]	1000 to 10000 nM
CCCCC(=O)Nc1csc(-c2cncc(-c3ccc(-c4nc(=O)o[nH]4)c(OC)c3)n2)c1 [Example A39, N-(5-(6-(3-methoxy-4-(5-oxo-2,5-dihydro-1,2,4-oxadiazol-3-yl)phenyl)pyrazin-2-yl)thiophen-3-yl)pentanamide]	101 to 1000 nM
CCCCC(=O)Nc1csc(-c2cncc(-c3ccc(S(C)(=O)=O)cc3)n2)c1 [Example A40, N-(5-(6-(4-(methylsulfonyl)phenyl)pyrazin-2-yl)thiophen-3-yl)pentanamide]	101 to 1000 nM
CCCCC(=O)Nc1csc(-c2cncc(-c3ccc(F)c(O)c3)n2)c1 [Example A41, N-(5-(6-(4-fluoro-3-hydroxyphenyl)pyrazin-2-yl)thiophen-3-yl)pentanamide]	101 to 1000 nM
CCCCC(=O)Nc1csc(-c2cncc(-c3ccc(S(C)(=O)=O)c(OC)c3)n2)c1 [Example A42, N-(5-(6-(3-methoxy-4-(methylsulfonyl)phenyl)pyrazin-2-yl)thiophen-3-yl)pentanamide]	101 to 1000 nM

Structure (SMILES)	IC50
COc1cc(-c2cncc(-c3cc(NC(=O)CC4CC4)cs3)n2)ccc1S(C)(=O)=O [Example A43, 2-cyclopropyl-N-(5-(6-(3-methoxy-4-(methylsulfonyl)phenyl)pyrazin-2-yl)thiophen-3-yl)acetamide]	11 to 100 nM
COc1cc(-c2cncc(-c3cc(NC(=O)CC4CCC4)cs3)n2)ccc1S(C)(=O)=O [Example A44, 2-cyclobutyl-N-(5-(6-(3-methoxy-4-(methylsulfonyl)phenyl)pyrazin-2-yl)thiophen-3-yl)acetamide]	11 to 100 nM
CCCCC(=O)Nc1cc(-c2cncc(-c3ccc(S(C)(=O)=O)c(OC)c3)n2)sc1C [Example A45, N-(5-(6-(3-methoxy-4-(methylsulfonyl)phenyl)pyrazin-2-yl)-2-methylthiophen-3-yl)pentanamide]	1000 to 10000 nM
CCS(=O)(=O)c1ccc(-c2cncc(-c3cc(NC(=O)CC4CCC4)cs3)n2)cc1OC [Example A46, 2-cyclobutyl-N-(5-(6-(4-(ethylsulfonyl)-3-methoxyphenyl)pyrazin-2-yl)thiophen-3-yl)acetamide]	101 to 1000 nM
COc1cc(-c2cncc(-c3cc(NC(=O)CC4CCC4)cs3)n2)ccc1[S+](C)[O-] (centres unmarked) [Example A47, 2-cyclobutyl-N-(5-(6-(3-methoxy-4-(methylsulfinyl)phenyl)pyrazin-2-yl)thiophen-3-yl)acetamide]	101 to 1000 nM
COc1cc(-c2cncc(-c3cc(NC(=O)CC4CCC4)cs3)n2)ccc1S(=O)(=O)C1CCC1 [Example A48, 2-cyclobutyl-N-(5-(6-(4-(cyclobutylsulfonyl)-3-methoxyphenyl)pyrazin-2-yl)thiophen-3-yl)acetamide]	101 to 1000 nM
Cn1ncc2ccc(-c3cncc(-c4cc(NC(=O)CC5CCC5)cs4)n3)cc21 [Example A49, 2-cyclobutyl-N-(5-(6-(1-methyl-1H-indazol-6-yl)pyrazin-2-yl)thiophen-3-yl)acetamide]	11 to 100 nM
CN1CCC(Cn2cc3ccc(-c4cncc(-c5cc(NC(=O)CC6CCC6)cs5)n4)cc3n2)CC1 [Example A50, 2-cyclobutyl-N-(5-(6-(2-((1-methylpiperidin-4-yl)methyl)-2H-indazol-6-yl)pyrazin-2-yl)thiophen-3-yl)acetamide]	11 to 100 nM
Cc1nn(C)c2cc(-c3cncc(-c4cc(NC(=O)CC5CCC5)cs4)n3)ccc12 [Example A51, 2-cyclobutyl-N-(5-(6-(1,3-dimethyl-1H-indazol-6-yl)pyrazin-2-yl)thiophen-3-yl)acetamide]	101 to 1000 nM
O=C(CC1CCC1)Nc1csc(-c2cncc(-c3ccc4cn[nH]c4c3)n2)c1 [Example A52, N-(5-(6-(1H-indazol-6-yl)pyrazin-2-yl)thiophen-3-yl)-2-cyclobutylacetamide]	11 to 100 nM
CCCCC(=O)Nc1csc(-c2cncc(-c3ccc(C(=O)OC)c(OC)c3)n2)c1 [Example B1, Methyl 2-methoxy-4-(6-(4-pentanamidothiophen-2-yl)pyrazin-2-yl)benzoate]	101 to 1000 nM
CCCCC(=O)Nc1csc(-c2cncc(-c3ccc(C(=O)O)c(OC)c3)n2)c1 [Example B2, 2-methoxy-4-(6-(4-pentanamidothiophen-2-yl)pyrazin-2-yl)benzoic acid]	11 to 100 nM
CCCCC(=O)Nc1csc(-c2cncc(-c3ccc(C(N)=O)c(OC)c3)n2)c1 [Example B3, 2-methoxy-4-(6-(4-pentanamidothiophen-2-yl)pyrazin-2-yl)benzamide]	101 to 1000 nM
CCCCC(=O)Nc1csc(-c2cncc(-c3ccc(C(=O)Nc4nnn[nH]4)c(OC)c3)n2)c1 [Example B4, 2-methoxy-4-(6-(4-pentanamidothiophen-2-yl)pyrazin-2-yl)-N-(1H-tetrazol-5-yl)benzamide]	11 to 100 nM
CCCCC(=O)Nc1csc(-c2cncc(-c3ccc(C(=O)Nc4ncc[nH]4)c(OC)c3)n2)c1 [Example B5, 2-methoxy-4-(6-(4-pentanamidothiophen-2-yl)pyrazin-2-yl)-N-(1H-imidazol-2-yl) benzamide]	101 to 1000 nM
COc1cc(-c2cncc(-c3cc(NC(=O)C4CCCCC4)cs3)n2)ccc1C(=O)O [Example B6, 4-(6-(4-(cyclohexanecarboxamido)thiophen-2-yl)pyrazin-2-yl)-2-methoxybenzoic acid]	101 to 1000 nM
CCCCC(=O)Nc1csc(-c2cncc(-c3ccc(C(=O)NS(=O)(=O)N(C)C)c(OC)c3)n2)c1 [Example B7, 2-methoxy-4-(6-(4-pentanamidothiophen-2-yl)pyrazin-2-yl)-N-(N,N-dimethylsulfamoyl)benzamide]	101 to 1000 nM
CCCCC(=O)Nc1csc(-c2cncc(-c3ccc(C(=O)Nc4nccs4)c(OC)c3)n2)c1 [Example B8, 2-methoxy-4-(6-(4-pentanamidothiophen-2-yl)pyrazin-2-yl)-N-(thiazol-2-yl)benzamide]	1000 to 10000 nM
CCCC(=O)Nc1csc(-c2cncc(-c3ccc(C(=O)Nc4nnn[nH]4)c(OC)c3)n2)c1 [Example B9, 2-methoxy-4-(6-(4-butyramidothiophen-2-yl)pyrazin-2-yl)-N-(1H-tetrazol-5-yl)benzamide]	101 to 1000 nM
